Results as given in patent US20160316790A1, “BETA-HINOKITIOL DERIVATIVES AND APPLICATIONS THEREOF IN PREPARATION OF ANIMAL ANTIBACTERIAL AGENTS AND ANTIBACTERIAL GROWTH PROMOTERS USED IN FEED” (GUANGZHOU INSIGHTER BIOTECHNOLOGY CO., LTD., priority 2013, published 2016).
Converted amounts (≈) assume the structure as drawn. “And” between values parts separate entries of the source, which are not always exact repeats. Identical values can stand only once. Like-named read-outs stand apart in the source and are kept apart here.

How the values were obtained:
riemerella anatipestifer [1] = experiment: Minimum inhibitory concentration in vitro, doubling dilutions; assay type: cell-based
salmonellas = experiment: as above; assay type: cell-based
clostridium perfringens = experiment: microbe, parasite or virus in culture; assay type: cell-based
vibrio = experiment: Minimum inhibitory concentration in vitro, doubling dilutions; assay type: cell-based
staphylococcus aureus = experiment: as above; assay type: cell-based
streptococcus = experiment: as above; assay type: cell-based
riemerella anatipestifer [2] = experiment: Protection effect against attacking and infection of riemerella anatipestifer; conditions: ducks, 5 × 10^7 CFU/bird, 7 days
escherichia coli = experiment: Minimum inhibitory concentration in vitro, doubling dilutions; assay type: cell-based
haemophilus parasuis = experiment: as above; assay type: cell-based; conditions: Glaesserella parasuis
[3] = Effect of β-hinokitiol derivatives on diarrhea of weaned pigs; assay type: in vivo
Description: 80 25-day-old weaned pigs were randomly divided into eight groups according to table 7, 10 pigs in each group. […] During the testing, the pigs ate food and drank water freely with temperature preservation. The test lasted for 10 days.

[4] = system: major animal pathogenic bacteria; experiment: In vitro antibacterial activity (MICs), overall statement; assay type: cell-based; conditions: Tables 1 to 4
[5] = Application effect test of β-hinokitiol derivatives in broiler feeds; assay type: in vivo, fast-grown type yellow feather broilers; conditions: 14 days; for Average daily weight gain / Average weight gain / Total consumption / feed conversion efficiency: broilers
Description: 598 fast-grown type yellow feather broilers (female) aged 30-days were divided into five groups according to table 5. […] During the test, the broilers ate food and drank water freely. The test lasted for 14 days. […] [table]

With `CCCc1cccc(=O)c(O)c1` [IST_009_001, 2-hydroxy-4-propylcyclohepta-2,4,6-trienone] the MIC (riemerella anatipestifer [1]; read-out: Minimum inhibitory concentration (MIC), Riemerella anatipestifer SCAU03) was 12.5 µg/mL (≈ 76.1 µM), the MIC (riemerella anatipestifer [1]; read-out: Minimum inhibitory concentration (MIC), Riemerella anatipestifer WS) was 3.13 µg/mL (≈ 19.1 µM) and the MIC (salmonellas; strain FS1303B, read-out: Minimum inhibitory concentration (MIC), Salmonellas FS1303B) was 6.25 µg/mL (≈ 38.1 µM). For the same molecule, the MIC (salmonellas; strain GD1303-3, read-out: Minimum inhibitory concentration (MIC), Salmonellas GD1303-3) was 12.5 µg/mL (≈ 76.1 µM), the MIC (clostridium perfringens; read-out: Minimum inhibitory concentration (MIC), Clostridium JM1210B) was 3.13 µg/mL (≈ 19.1 µM) and the MIC (clostridium perfringens; read-out: Minimum inhibitory concentration (MIC), Clostridium JM1212A) was 3.13 µg/mL (≈ 19.1 µM). It also gave an MIC (vibrio; read-out: Minimum inhibitory concentration (MIC), Vibrio VP3) of 12.5 µg/mL (≈ 76.1 µM), an MIC (vibrio; read-out: Minimum inhibitory concentration (MIC), Vibrio VP5) of 6.25 µg/mL (≈ 38.1 µM) and an MIC (staphylococcus aureus; read-out: Minimum inhibitory concentration (MIC), Staphylococcus aureus PNB14) of 12.5 µg/mL (≈ 76.1 µM). It also gave an MIC (staphylococcus aureus; read-out: Minimum inhibitory concentration (MIC), Staphylococcus aureus SA10) of 12.5 µg/mL (≈ 76.1 µM), an MIC (streptococcus; strain KP1307-1, read-out: Minimum inhibitory concentration (MIC), Streptococcus KP1307-1) of 25 µg/mL (≈ 152 µM) and an MIC (streptococcus; strain TS1205-2, read-out: Minimum inhibitory concentration (MIC), Streptococcus TS1205-2) of 25 µg/mL (≈ 152 µM). It also gave a Death rate (riemerella anatipestifer [2]; 10 mg/kg weight intramuscular) of 0%, a Morbidity (riemerella anatipestifer [2]; 10 mg/kg weight intramuscular) of 40% and a Death rate (riemerella anatipestifer [2]; 20 mg/kg weight intramuscular) of 0%. It also gave a Morbidity (riemerella anatipestifer [2]; 20 mg/kg weight intramuscular) of 25%, an MIC (escherichia coli; read-out: Minimum inhibitory concentration (MIC), Eserichia coli HZ1308-1) of 12.5 µg/mL (≈ 76.1 µM) and an MIC (escherichia coli; read-out: Minimum inhibitory concentration (MIC), Eserichia coli SS1107A) of 12.5 µg/mL (≈ 76.1 µM). The MIC (haemophilus parasuis; read-out: Minimum inhibitory concentration (MIC), Haemophilus parasuis S5A) was 0.2 µg/mL (≈ 1.22 µM), the MIC (haemophilus parasuis; strain 2-3A, read-out: Minimum inhibitory concentration (MIC), Haemophilus parasuis 2-3A) was 0.39 µg/mL (≈ 2.38 µM) and the “effect on diarrhea compared with colistin sulfate or IST_001_002 groups (in words)” value ([3]; 30 ppm test group) was “obviously better than that of colistin sulfate or IST_001_002 groups”. The “Average daily diarrhea rate” value ([3]; weaned pigs, 30 ppm in diet, 10 days) was 16% and 17%, the “diarrhea rate of the tested pigs (in words)” value ([3]; weaned pigs, added in feeds, 10 days) was “could obviously reduce the diarrhea rate” and the “antibacterial activities compared with the lead compound IST_001_002 (in words)” value [4] was “better than those of the lead compound IST_001_002”. The “Average daily weight gain” value ([5]; 5 ppm mixed with feed) was 37.75 g/d * bird and 36.93 g/d * bird and 33.52 g/d * bird, the Average weight gain ([5]; 5 ppm mixed with feed) was 516.79 g and 520.00 g and 547.21 g and the Total consumption ([5]; 5 ppm mixed with feed) was 61 kg and 58.85 kg and 55.12 kg. The feed conversion efficiency ([5]; 5 ppm mixed with feed) was 2.886 and 2.846 and 2.808, the “Average daily weight gain” value ([5]; 15 ppm mixed with feed) was 36.94 g/d * bird and 37.5 g/d * bird and 34.53 g/d * bird and the Average weight gain ([5]; 15 ppm mixed with feed) was 517.17 g and 525.50 g and 523.38 g. The Total consumption ([5]; 15 ppm mixed with feed) was 58.03 kg and 57.61 kg and 57.84 kg, the feed conversion efficiency ([5]; 15 ppm mixed with feed) was 2.807 and 2.741 and 2.889 and the “weight gain and feed conversion efficiency of the experimental broilers (in words)” value ([5]; in feed) was “could enhance the weight gain and the feed conversion efficiency”.
